# Reference: patent publication US10106828B2, “Cell culture medium and process for protein expression, said medium and process comprising a PAM inhibitor” (SANDOZ GMBH, priority 2010, dated 2018)
# Legend:
# CHO cells [1] = test: Influence of PBA on proline amide formation on an Fc-fusion protein expressed in CHO cells, quantified by peptide mapping; assay type: cell-based, Chinese hamster; details: for proline amide (% per heavy chain): without PBA >4%
# From the text: (§1) For antibodies, co-elution of proline amide variants with lysine variants is avoided by removal of lysine residues using carboxypeptidase B digestion prior to chromatographic separation. Additional co-elution with other basic variants, however, can result in a quantification background of several percent (e.g. 4%). Proline amide variants plus background are termed “Pseudo 1K” for eluting at the chromatographic position of the antibody variant with one C-terminal lysine residue. “Pseudo 2K” encompasses the proline variants plus background eluting at the chromatographic position of the antibody variant with two C-terminal lysine residue. The difference to the CEX method (i.e. CEX without lysine removal by CPB digestion) is indicating the amount of antibody variants with lysine residues, termed “Real 1K” and “Real 2K”. The quantification by CEX(-CPB) returns the percentage of proline amidated antibodies relative to all antibody molecules in a solution. An analytical test method which unambiguously can identify and quantify amidated proline variants is RP-HPLC (reversed-phase high-performance-liquid-chromatography) of endopeptidase (e.g. LysC, Trypsin) digested protein, so called peptide mapping, using UV (ultraviolet) or MS (mass-spec) detection. The quantification by RP-HPLC peptide mapping returns for an antibody the percentage of proline amidated heavy chains relative to all heavy chains.
# Two recombinant proteins were used to investigate the effect of PAM inhibitors on amino acid amidation/proline amid formation, i.e., a monoclonal antibody (human-mouse-chimeric IgG), and an Fc-fusion protein. CHO cells were used as expression system.
# FIG. 2: Influence of PAM inhibitor PBA on proline amide formation on an Fc-fusion protein expressed in CHO cells, as quantified by peptide mapping. Supplementing the cultures of recombinant CHO cells with various concentrations of PBA up to 100 μM decreased the amount of proline amide (% per heavy chain) in a dose-dependent effect curve from app. 2% (no PBA) to app. 0.1% (100 μM PBA).
# FIG. 3: Influence of PAM inhibitor PBA on proline amide formation on an Fc-fusion protein expressed in CHO cells, as quantified by peptide mapping.
# CHO cells [2] = test: Influence of PAM inhibitors on proline amide formation on a monoclonal antibody (chimeric IgG) expressed in CHO cells, CEX-CPB analysis / peptide mapping; assay type: cell-based, Chinese hamster; details: FIG. 1; for amount of pseudo 1K (proline amide) in CEX-CPB: monoclonal antibody (chimeric IgG), control without inhibitor app. 10%
# From the text: The amount of proline amide can be identified and quantified by various analytical methods, by distinguishing the amidated variant from the non-amidated one by physico-chemical differences such as charge, hydrophobicity or mass. The most common method is ion exchange chromatography, as the CEX-CPB method (cation exchange chromatography after digestion by carboxypeptidase B), exploiting the charge alteration due to proline amidation.
# as §1
# “Pseudo 1K” is the variant determined by CEX-CPB where one of the two heavy chains of an antibody (IgG) has a proline amide at its C-terminus. “Pseudo 2K” is the variant determined by CEX-CPB where both heavy chains of a monoclonal antibody have a proline amide at their C-termini.
# In their experiments, the inventors focused on published PAM inhibitors as potential medium components. Among the screened components are, i.e., sodium sulfite, tiopronin, captopril, EDTA, ammonium sulfite, L-histidine, D-histidine, ammonium meta thiomolybdate, L-carnosine, penicillamine, 4-phenyl-3 butenoic acid (PBA). […]
# FIG. 1: Influence of PAM inhibitors on proline amide (PA) formation, quantified as ‘pseudo 1K’ in CEX-CPB analysis, on a monoclonal antibody (chimeric IgG) expressed in CHO cells. […]
structure (smiles),measurement,setting,value
"O=C(O)CC=Cc1ccccc1 [PBA, 4-phenyl-3-butenoic acid]",amount of proline amide (% per heavy chain),"CHO cells [1]; FIG. 2, 100 μM PBA, no PBA app. 2%",~0.1%
same,effect curve of proline amide decrease,"CHO cells [1]; FIG. 2, various concentrations up to 100 μM",dose-dependent
same,proline amide (% per heavy chain),"CHO cells [1]; FIG. 3, 50 μM PBA",< 1%
same,proline amide (% per heavy chain),"CHO cells [1]; FIG. 3, 100 μM PBA",< 0.5%
same,amount of pseudo 1K (proline amide) in CEX-CPB,CHO cells [2]; 10 μM in cell culture medium,~8%
same,amount of pseudo 1K (proline amide) in CEX-CPB,CHO cells [2]; 100 μM in cell culture medium,~5%
same,"proline amide per heavy chain, peptide mapping","CHO cells [2]; corresponds to 5% pseudo 1K in CEX-CPB (100 μM), monoclonal antibody",0-2%
same,effect on proline amide formation compared with other screened PAM inhibitors,CHO cells [2]; supplemented to the cell culture,strongest effect
